Reference: ChEMBL document CHEMBL5375978, “Harnessing the Reactivity of Duclauxin toward Obtaining hPTP1B1-400 Inhibitors” (J Med Chem, 2023)
pIC50: −log10 of the molar value. Active and inactive are the calls of the source. No cut-off for these calls is given here.

target: T1, Tyrosine-protein phosphatase non-receptor type 1 (Homo sapiens, UniProt P18031); test: Inhibition of wild type N-terminal 6 his tagged human PTP1B (1 to 400 residues) expressed in Escherichia coli (Rosetta, DE3) using p-NPP as substrate preincubated for 10 mins followed by substrate addition and measured after 20 mins by absorbance based analysis; conditions: not given
T1 sequence (P18031 whole entry): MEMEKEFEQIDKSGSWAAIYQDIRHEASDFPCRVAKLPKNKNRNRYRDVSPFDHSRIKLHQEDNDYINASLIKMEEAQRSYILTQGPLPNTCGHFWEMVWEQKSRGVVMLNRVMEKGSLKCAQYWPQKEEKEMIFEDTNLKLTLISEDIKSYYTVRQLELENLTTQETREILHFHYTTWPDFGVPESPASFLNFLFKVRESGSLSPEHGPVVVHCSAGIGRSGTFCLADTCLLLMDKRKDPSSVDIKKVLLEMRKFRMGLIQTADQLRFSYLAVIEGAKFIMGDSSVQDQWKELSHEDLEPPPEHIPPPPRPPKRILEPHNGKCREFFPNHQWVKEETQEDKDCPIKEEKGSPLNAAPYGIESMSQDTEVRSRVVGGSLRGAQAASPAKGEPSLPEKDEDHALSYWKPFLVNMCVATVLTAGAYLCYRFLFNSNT

| SMILES | pIC50 |
| --- | --- |
| CC(=O)O[C@H]1[C@@H]2C(=O)c3c(C)cc(O)c4c3[C@@]1(COC4=O)C1=C2c2c(C)cc(O)c3c(=O)n(-c4ccccc4)cc(c23)C1=O | 4.11 |
| CC(=O)O[C@H]1[C@@H]2C(=O)c3c(C)cc(O)c4c3[C@@]1(COC4=O)C1=C2c2c(C)cc(O)c3c(=O)n(-c4cccnc4)cc(c23)C1=O | 4.24 |
| CO[C@@]12c3c(C)cc(O)c4c(=O)n(-c5ccc(C)cc5)cc(c34)C(=O)[C@@H]1[C@]13COC(=O)c4c(O)cc(C)c(c41)C(=O)[C@H]2[C@@H]3OC(C)=O | 4.45 |
| CC(=O)O[C@H]1[C@@H]2C(=O)c3c(C)cc(O)c4c3[C@@]1(COC4=O)C1=C2c2c(C)cc(O)c3c(=O)n(-c4ccc(O)cc4)cc(c23)C1=O | 4.63 |
| CC(=O)O[C@H]1[C@@H]2C(=O)c3c(C)cc(O)c4c3[C@@]1(COC4=O)C1=C2c2c(C)cc(O)c3c(=O)n(-c4cc(C)ccn4)cc(c23)C1=O | 4.80 |
| CC(=O)O[C@H]1[C@@H]2C(=O)c3c(C)cc(O)c4c3[C@@]1(COC4=O)C1=C2c2c(C)cc(O)c3c(=O)n(-c4ccccc4F)cc(c23)C1=O | 4.46 |
| CC(=O)O[C@H]1[C@@H]2C(=O)c3c(C)cc(O)c4c3[C@@]1(COC4=O)C1=C2c2c(C)cc(O)c3c(=O)n(-c4ccc(O)cc4[N+](=O)[O-])cc(c23)C1=O | 4.50 |
| CC(=O)O[C@H]1[C@@H]2C(=O)c3c(C)cc(O)c4c3[C@@]1(COC4=O)C1=C2c2c(C)cc(O)c3c(=O)n(-c4cccc5ncccc45)cc(c23)C1=O | 4.80 |
| CC(=O)O[C@H]1[C@@H]2C(=O)c3c(C)cc(O)c4c3[C@@]1(COC4=O)c1c(O)c3c4c(c(O)cc(C)c4c12)C(=O)OC3=O | 4.66 |
| CC(=O)O[C@H]1[C@@H]2C(=O)c3c(C)cc(O)c4c3[C@@]1(COC4=O)C1=C2c2c(C)cc(O)c3c(=O)[nH]cc(c23)C1=O | 4.44 |
| CC(=O)O[C@H]1[C@@H]2C(=O)c3c(C)cc(O)c4c3[C@@]1(COC4=O)C1=C2c2c(C)cc(O)c3c(=O)n(-c4cccc([N+](=O)[O-])c4)cc(c23)C1=O | 5.10 |
| CC(=O)O[C@H]1[C@@H]2C(=O)c3c(C)cc(O)c4c3[C@@]1(COC4=O)C1=C2c2c(C)cc(O)c3c(=O)n(-c4ccc(Br)cc4)cc(c23)C1=O | 5.03 |
| CC(=O)O[C@H]1[C@@H]2C(=O)c3c(C)cc(O)c4c3[C@@]1(COC4=O)C1=C2c2c(C)cc(O)c3c(=O)n(-c4ccc(Cl)cc4)cc(c23)C1=O | 4.86 |
| CC(=O)O[C@H]1[C@@H]2C(=O)c3c(C)cc(O)c4c3[C@@]1(COC4=O)C1=C2c2c(C)cc(O)c3c(=O)n(-c4cnc5ccccc5c4)cc(c23)C1=O | 4.63 |
| COc1ccc(-n2cc3c4c(c(C)cc(O)c4c2=O)C2=C(C3=O)[C@]34COC(=O)c5c(O)cc(C)c(c53)C(=O)[C@H]2[C@@H]4OC(C)=O)cc1 | 4.83 |
| CO[C@@H]1OC(=O)c2c(O)cc(C)c3c4c(c(O)c1c23)[C@]12COC(=O)c3c(O)cc(C)c(c31)C(=O)[C@H]4[C@@H]2OC(C)=O | 4.90 |
| CC(=O)O[C@H]1[C@@H]2C(=O)c3c(C)cc(O)c4c3[C@@]1(COC4=O)C1=C2c2c(C)cc(O)c3c(=O)n(-c4ncccc4C)cc(c23)C1=O | 4.49 |

Next, values leading:

| pIC50 | SMILES |
| --- | --- |
| 5.11 | CO[C@@]12c3c(C)cc(O)c4c(=O)n(-c5ccc([N+](=O)[O-])cc5)cc(c34)C(=O)[C@@H]1[C@]13COC(=O)c4c(O)cc(C)c(c41)C(=O)[C@H]2[C@@H]3OC(C)=O |
| 5.49 | CC(=O)O[C@H]1[C@@H]2C(=O)c3c(C)cc(O)c4c3[C@@]1(COC4=O)C1=C2c2c(C)cc(O)c3c(=O)n(-c4ccc(C)cc4)cc(c23)C1=O |
| 4.42 | CO[C@H]1OC(=O)c2c(O)cc(C)c3c4c(c(O)c1c23)[C@]12COC(=O)c3c(O)cc(C)c(c31)C(=O)[C@H]4[C@@H]2OC(C)=O |
| 5.19 | CC(=O)O[C@H]1[C@@H]2C(=O)c3c(C)cc(O)c4c3[C@@]1(COC4=O)C1=C2c2c(C)cc(O)c3c(=O)n(-c4cccc5cccnc45)cc(c23)C1=O |
| 4.44 | CC(=O)O[C@H]1[C@@H]2C(=O)c3c(C)cc(O)c4c3[C@@]1(COC4=O)C1=C2c2c(C)cc(O)c3c(=O)n(-c4ccccn4)cc(c23)C1=O |
| 4.88 | CC(=O)O[C@H]1[C@@H]2C(=O)c3c(C)cc(O)c4c3[C@@]1(COC4=O)C1=C2c2c(C)cc(O)c3c(=O)n(-c4ccccc4O)cc(c23)C1=O |
| 4.64 | CCOC(=O)[C@H](Cc1ccccc1)n1cc2c3c(c(C)cc(O)c3c1=O)C1=C(C2=O)[C@]23COC(=O)c4c(O)cc(C)c(c42)C(=O)[C@H]1[C@@H]3OC(C)=O |
| 4.89 | CC(=O)O[C@H]1[C@@H]2C(=O)c3c(C)cc(O)c4c3[C@@]1(COC4=O)C1=C2c2c(C)cc(O)c3c(=O)n(-c4ccc(I)cc4)cc(c23)C1=O |
| 4.91 | CO[C@@]12c3c(C)cc(O)c4c(=O)n(-c5cccc([N+](=O)[O-])c5)cc(c34)C(=O)[C@@H]1[C@]13COC(=O)c4c(O)cc(C)c(c41)C(=O)[C@H]2[C@@H]3OC(C)=O |
| 5.24 | CC(=O)O[C@H]1[C@@H]2C(=O)c3c(C)cc(O)c4c3[C@@]1(COC4=O)C1=C2c2c(C)cc(O)c3c(=O)n(-c4ccc5ncccc5c4)cc(c23)C1=O |
| 4.87 | CO[C@@]12c3c(C)cc(O)c4c(=O)n(CC(=O)O)cc(c34)C(=O)[C@@H]1[C@]13COC(=O)c4c(O)cc(C)c(c41)C(=O)[C@H]2[C@@H]3OC(C)=O |
| 4.25 | CCOC(=O)[C@H](Cc1ccccc1)n1cc2c3c(c(C)cc(O)c3c1=O)[C@]1(OC)[C@H](C2=O)[C@]23COC(=O)c4c(O)cc(C)c(c42)C(=O)[C@H]1[C@@H]3OC(C)=O |
| 4.76 | CC(=O)O[C@H]1[C@@H]2C(=O)c3c(C)cc(O)c4c3[C@@]1(COC4=O)C1=C2c2c(C)cc(O)c3c(=O)n(-c4ccccc4I)cc(c23)C1=O |
| 4.32 | CO[C@@]12c3c(C)cc(O)c4c(=O)n(-c5ccc(Br)cc5)cc(c34)C(=O)[C@@H]1[C@]13COC(=O)c4c(O)cc(C)c(c41)C(=O)[C@H]2[C@@H]3OC(C)=O |
| 4.09 | CC(=O)O[C@H]1[C@@H]2C(=O)c3c(C)cc(O)c4c3[C@@]1(COC4=O)c1c(O)c3c4c(c(O)cc(C)c4c12)C(=O)O3 |
| 4.14 | CO[C@@]12c3c(C)cc(O)c4c(=O)n(-c5cccc(Cl)c5)cc(c34)C(=O)[C@@H]1[C@]13COC(=O)c4c(O)cc(C)c(c41)C(=O)[C@H]2[C@@H]3OC(C)=O |
| 4.77 | COc1ccc(-n2cc3c4c(c(C)cc(O)c4c2=O)C2=C(C3=O)[C@]34COC(=O)c5c(O)cc(C)c(c53)C(=O)[C@H]2[C@@H]4OC(C)=O)cc1OC |
| 4.63 | CO[C@@]12c3c(C)cc(O)c4c3C(=C(O)[C@@H]1[C@]13COC(=O)c5c(O)cc(C)c(c51)C(=O)[C@H]2[C@@H]3OC(C)=O)C=NC4=O |
| 4.57 | CC(=O)O[C@H]1[C@@H]2C(=O)c3c(C)cc(O)c4c3[C@@]1(COC4=O)C1=C2c2c(C)cc(O)c3c(=O)n(-c4ccccc4[N+](=O)[O-])cc(c23)C1=O |
| 4.41 | CC(=O)O[C@H]1[C@@H]2C(=O)c3c(C)cc(O)c4c3[C@@]1(COC4=O)C1=C2c2c(C)cc(O)c3c(=O)n(-c4ccccc4Cl)cc(c23)C1=O |
| 5.46 | CC(=O)O[C@H]1[C@@H]2C(=O)c3c(C)cc(O)c4c3[C@@]1(COC4=O)c1c(O)c(C=O)c3cc(O)cc(C)c3c12 |
| 4.63 | CC(=O)O[C@H]1[C@@H]2C(=O)c3c(C)cc(O)c4c3[C@@]1(COC4=O)C1=C2c2c(C)cc(O)c3c(=O)n(-c4cccc(Cl)c4)cc(c23)C1=O |
| 4.28 | COc1cc(-n2cc3c4c(c(C)cc(O)c4c2=O)C2=C(C3=O)[C@]34COC(=O)c5c(O)cc(C)c(c53)C(=O)[C@H]2[C@@H]4OC(C)=O)cc(OC)c1OC |

target: T2, Tyrosine-protein phosphatase non-receptor type 1 (Homo sapiens) (UniProt P18031); test: Inhibition of wild type N-terminal 6 his tagged human PTP1B (1 to 400 residues) expressed in Escherichia coli (Rosetta, DE3) using p-NPP as substrate at 100 uM preincubated for 10 mins followed by substrate addition and measured after 20 mins by absorbance based analysis; conditions: time 30.0 min
T2 sequence (whole entry): T1 sequence (P18031 whole entry)

| inhibition | SMILES |
| --- | --- |
| inactive | CO[C@@]12c3c(C)cc(O)c4c(=O)n(-c5ccccc5)cc(c34)C(=O)[C@@H]1[C@]13COC(=O)c4c(O)cc(C)c(c41)C(=O)[C@H]2[C@@H]3OC(C)=O |
| inactive | CO[C@@]12c3c(C)cc(O)c4c(=O)n([C@@H](CC(=O)O)C(=O)O)cc(c34)C(=O)[C@@H]1[C@]13COC(=O)c4c(O)cc(C)c(c41)C(=O)[C@H]2[C@@H]3OC(C)=O |
| inactive | CO[C@@]12c3c(C)cc(O)c4c(=O)n([C@H](C(=O)O)C(C)C)cc(c34)C(=O)[C@@H]1[C@]13COC(=O)c4c(O)cc(C)c(c41)C(=O)[C@H]2[C@@H]3OC(C)=O |

target: T2, Tyrosine-protein phosphatase non-receptor type 1 (Homo sapiens); test: Binding affinity to wild type N-terminal 6 his tagged human PTP1B (1 to 400 residues) expressed in Escherichia coli (Rosetta, DE3) assessed as affinity constant by fluorescence based analysis; conditions: not given

| Ka | SMILES |
| --- | --- |
| 2.1 10^5/M | CO[C@@]12c3c(C)cc(O)c4c(=O)n(-c5ccc([N+](=O)[O-])cc5)cc(c34)C(=O)[C@@H]1[C@]13COC(=O)c4c(O)cc(C)c(c41)C(=O)[C@H]2[C@@H]3OC(C)=O |
